Data taken from PubChem BioAssay (NCI).
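Values below derive from 48-hour exposures of cells grown in 96-well plates, with endpoints linearly interpolated between the two concentrations bracketing the appropriate inhibition level. Here, GI50 denotes the concentration required for 50% inhibition of growth. At the TGI there is no net growth.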

Experiments:
Assay in all cases: NCI anticancer screen, dose series, 48 h
[1] = test system: 786-0 renal
[2] = test system: A498 renal
[3] = test system: A549 NSCLC
[4] = test system: ACHN renal
[5] = test system: CAKI-1 renal
[6] = test system: CCRF-CEM leukemia
[7] = test system: COLO 205 colon
[8] = test system: DU-145 prostate
[9] = test system: EKVX NSCLC
[10] = test system: HCC-2998 colon
[11] = test system: HCT-116 colon
[12] = test system: HCT-15 colon
[13] = test system: HOP-62 NSCLC
[14] = test system: HOP-92 NSCLC
[15] = test system: HS 578T breast
[16] = test system: HT29 colon
[17] = test system: IGROV1 ovarian
[18] = test system: K-562 leukemia
[19] = test system: KM12 colon
[20] = test system: M14 melanoma
[21] = test system: MALME-3M melanoma
[22] = test system: MCF7 breast
[23] = test system: MDA-MB-231 breast
[24] = test system: MDA-MB-435
[25] = test system: MOLT-4 leukemia
[26] = test system: NCI-H23 lung
[27] = test system: NCI-H460 lung
[28] = test system: NCI-H522 lung
[29] = test system: NCI/ADR-RES ovarian
[30] = test system: OVCAR-3 ovarian
[31] = test system: OVCAR-4 ovarian
[32] = test system: OVCAR-5 ovarian
[33] = test system: PC-3 prostate
[34] = test system: RPMI-8226 leukemia
[35] = test system: RXF 393 renal
[36] = test system: SF-295 CNS
[37] = test system: SK-MEL-2 melanoma
[38] = test system: SK-MEL-28 melanoma
[39] = test system: SK-MEL-5 melanoma
[40] = test system: SK-OV-3 ovarian
[41] = test system: SNB-19 CNS
[42] = test system: SR leukemia
[43] = test system: SW-620 colon
[44] = test system: U251 CNS
[45] = test system: UACC-257 melanoma
[46] = test system: UACC-62 melanoma
[47] = test system: UO-31 renal
[48] = test system: BT-549 breast
[49] = test system: NCI-H226 lung
[50] = test system: SF-268 CNS
[51] = test system: SN12C renal
[52] = test system: SNB-75 CNS
[53] = test system: TK-10 renal
[54] = test system: HL-60(TB) leukemia
[55] = test system: LOX IMVI melanoma
[56] = test system: OVCAR-8 ovarian
[57] = test system: SF-539 CNS
[58] = test system: T-47D breast

Compound: C[C@@H]1OC(=O)C[C@H]2CC(=O)N(CCC3CN(S(=O)(=O)C(F)(F)F)c4ccccc43)C[C@@H]21 (stereo partly drawn)
- TGI [1]: > 100 µM
- TGI [2]: > 100 µM
- TGI [3]: > 100 µM
- TGI [4]: > 100 µM
- TGI [5]: > 100 µM
- TGI [6]: > 100 µM
- TGI [7]: > 100 µM
- TGI [8]: > 100 µM
- TGI [9]: > 100 µM
- TGI [10]: > 100 µM
- TGI [11]: > 100 µM
- TGI [12]: > 100 µM
- TGI [13]: > 100 µM
- TGI [14]: > 100 µM
- TGI [15]: > 100 µM
- TGI [16]: > 100 µM
- TGI [17]: > 100 µM
- TGI [18]: > 100 µM
- TGI [19]: > 100 µM
- TGI [20]: > 100 µM
- TGI [21]: > 100 µM
- TGI [22]: > 100 µM
- TGI [23]: > 100 µM
- TGI [24]: > 100 µM
- TGI [25]: > 100 µM
- TGI [26]: > 100 µM
- TGI [27]: > 100 µM
- TGI [28]: > 100 µM
- TGI [29]: > 100 µM
- TGI [30]: > 100 µM
- TGI [31]: > 100 µM
- TGI [32]: > 100 µM
- TGI [33]: > 100 µM
- TGI [34]: > 100 µM
- TGI [35]: > 100 µM
- TGI [36]: > 100 µM
- TGI [37]: > 100 µM
- TGI [38]: > 100 µM
- TGI [39]: > 100 µM
- TGI [40]: > 100 µM
- TGI [41]: > 100 µM
- TGI [42]: > 100 µM
- TGI [43]: > 100 µM
- TGI [44]: > 100 µM
- TGI [45]: > 100 µM
- TGI [46]: > 100 µM
- TGI [47]: > 100 µM

Compound: CC1(C)CCC[C@]2(C)[C@@H]1CC[C@@]13O[C@@H]1C1=C(CO)C(=O)OC1=C[C@@H]23
- TGI [1]: 27.3 µM
- TGI [2]: 76.8 µM
- TGI [3]: 24.4 µM
- TGI [4]: > 100 µM
- TGI [48]: 51 µM
- TGI [5]: 34.2 µM
- TGI [7]: 30.6 µM
- TGI [8]: 39.7 µM
- TGI [9]: 29.2 µM
- TGI [10]: 46.7 µM
- TGI [11]: 12.8 µM
- TGI [12]: 63.7 µM
- TGI [13]: 49.3 µM
- TGI [14]: 37 µM
- TGI [16]: 29.6 µM
- TGI [17]: 29.4 µM
- TGI [18]: > 100 µM
- TGI [19]: 24.8 µM
- TGI [20]: 33.9 µM
- TGI [21]: 23.7 µM
- TGI [22]: > 100 µM
- TGI [23]: 81.9 µM
- TGI [24]: 61.5 µM
- TGI [25]: > 100 µM
- TGI [49]: 30.2 µM
- TGI [26]: 46.5 µM
- TGI [27]: 67.4 µM
- TGI [28]: 24.7 µM
- TGI [29]: 37.7 µM
- TGI [31]: 55.9 µM
- TGI [32]: 23.2 µM
- TGI [33]: 57.4 µM
- TGI [34]: 62.8 µM
- TGI [35]: 36.4 µM
- TGI [50]: 54.7 µM
- TGI [36]: 44.9 µM
- TGI [37]: 53.8 µM
- TGI [38]: 31.7 µM
- TGI [39]: 29.5 µM
- TGI [40]: 46.5 µM
- TGI [51]: 25.9 µM
- TGI [41]: 28.7 µM
- TGI [52]: 88.4 µM
- TGI [43]: 37.5 µM
- TGI [53]: 55.5 µM
- TGI [44]: 67.4 µM
- TGI [45]: 71.2 µM
- TGI [46]: 40.7 µM
- TGI [47]: 26 µM

Compound: Cc1cccc2c1O/C(=C\c1ccc([N+](=O)[O-])o1)C2=O
- GI50 [1]: 1.8 µM
- TGI [1]: 4.27 µM
- GI50 [2]: 1.76 µM
- TGI [2]: 4.63 µM
- GI50 [3]: 2.56 µM
- TGI [3]: 7.81 µM
- GI50 [4]: 0.367 µM
- TGI [4]: 1.44 µM
- GI50 [48]: 1.28 µM
- TGI [48]: 2.63 µM
- GI50 [5]: 0.494 µM
- TGI [5]: 1.8 µM
- GI50 [6]: 0.285 µM
- TGI [6]: 1.05 µM
- GI50 [7]: 0.66 µM
- TGI [7]: 2.14 µM
- GI50 [8]: 0.659 µM
- TGI [8]: 2.12 µM
- GI50 [10]: 1.34 µM
- TGI [10]: 3.91 µM
- GI50 [11]: 0.251 µM
- TGI [11]: 0.777 µM
- GI50 [12]: 0.274 µM
- TGI [12]: 0.998 µM
- GI50 [54]: 1.58 µM
- TGI [54]: 4.35 µM
- GI50 [13]: 1.64 µM
- TGI [13]: 4.44 µM
- GI50 [14]: 1.16 µM
- TGI [14]: 2.95 µM
- GI50 [15]: 2.25 µM
- TGI [15]: > 25 µM
- GI50 [16]: 0.324 µM
- TGI [16]: 1.27 µM
- GI50 [17]: 1.54 µM
- TGI [17]: 5.39 µM
- GI50 [18]: 0.296 µM
- TGI [18]: 1.12 µM
- GI50 [19]: 1.38 µM
- TGI [19]: 2.99 µM
- GI50 [55]: 1.23 µM
- TGI [55]: 2.69 µM
- GI50 [20]: 1.43 µM
- TGI [20]: 3.21 µM
- GI50 [21]: 0.971 µM
- TGI [21]: 2.66 µM
- GI50 [23]: 1.21 µM
- TGI [23]: 3.61 µM
- GI50 [24]: 1.02 µM
- TGI [24]: 2.46 µM
- GI50 [25]: 1.52 µM
- TGI [25]: 5.7 µM
- GI50 [49]: 1.42 µM
- TGI [49]: 3.14 µM
- GI50 [26]: 1.35 µM
- TGI [26]: 3.41 µM
- GI50 [27]: 0.817 µM
- TGI [27]: 2.5 µM
- GI50 [28]: 0.222 µM
- TGI [28]: 0.668 µM
- GI50 [29]: 2.54 µM
- TGI [29]: > 60.4 µM
- GI50 [30]: 0.689 µM
- TGI [30]: 1.89 µM
- GI50 [31]: 2.06 µM
- TGI [31]: 8.06 µM
- GI50 [32]: 1.79 µM
- TGI [32]: 3.74 µM
- GI50 [56]: 0.941 µM
- TGI [56]: 7.93 µM
- GI50 [33]: 1.34 µM
- TGI [33]: 4.11 µM
- GI50 [34]: 0.32 µM
- TGI [34]: 1.8 µM
- GI50 [35]: 1.24 µM
- TGI [35]: 2.83 µM
- GI50 [50]: 1.56 µM
- TGI [50]: 3.94 µM
- GI50 [36]: 2 µM
- TGI [36]: 6.46 µM
- GI50 [57]: 1.53 µM
- TGI [57]: 3.22 µM
- GI50 [37]: 1.76 µM
- TGI [37]: 3.52 µM
- GI50 [38]: 1.53 µM
- TGI [38]: 3.05 µM
- GI50 [39]: 1.14 µM
- TGI [39]: 2.42 µM
- GI50 [40]: 2.57 µM
- TGI [40]: 8.28 µM
- GI50 [51]: 1.57 µM
- TGI [51]: 4.25 µM
- GI50 [41]: 2.7 µM
- TGI [41]: > 33 µM
- GI50 [52]: 1.64 µM
- TGI [52]: 5.8 µM
- GI50 [42]: 0.12 µM
- TGI [42]: 0.727 µM
- GI50 [43]: 0.223 µM
- TGI [43]: 0.864 µM
- GI50 [58]: 1.2 µM
- TGI [58]: 3.69 µM
- GI50 [53]: 2.3 µM
- TGI [53]: 5.61 µM
- GI50 [44]: 1.44 µM
- TGI [44]: 2.89 µM
- GI50 [45]: 1.42 µM
- TGI [45]: 2.91 µM
- GI50 [46]: 1.26 µM
- TGI [46]: 2.72 µM
- GI50 [47]: 1.09 µM
- TGI [47]: 2.49 µM
